In paper PMC5209447, “Aryl-1,3,5-triazine ligands of histamine H4 receptor attenuate inflammatory and nociceptive response to carrageen, zymosan and lipopolysaccharide” (Inflammation Research, 2016):

Biological target: T1, phosphodiesterase 4B1 (PDE 4B1) (Homo sapiens, UniProt Q07343)
T1 construct: gene PDE4B; PDE 4B1 (BPS Biosciences)
Experiment: PDELight bioluminescent cAMP phosphodiesterase assay, % inhibition at […]
Type: biochemical
Settings: read-out: PDE 4B1 inhibition (%) ± SEM

T1 sequence (Q07343 whole entry): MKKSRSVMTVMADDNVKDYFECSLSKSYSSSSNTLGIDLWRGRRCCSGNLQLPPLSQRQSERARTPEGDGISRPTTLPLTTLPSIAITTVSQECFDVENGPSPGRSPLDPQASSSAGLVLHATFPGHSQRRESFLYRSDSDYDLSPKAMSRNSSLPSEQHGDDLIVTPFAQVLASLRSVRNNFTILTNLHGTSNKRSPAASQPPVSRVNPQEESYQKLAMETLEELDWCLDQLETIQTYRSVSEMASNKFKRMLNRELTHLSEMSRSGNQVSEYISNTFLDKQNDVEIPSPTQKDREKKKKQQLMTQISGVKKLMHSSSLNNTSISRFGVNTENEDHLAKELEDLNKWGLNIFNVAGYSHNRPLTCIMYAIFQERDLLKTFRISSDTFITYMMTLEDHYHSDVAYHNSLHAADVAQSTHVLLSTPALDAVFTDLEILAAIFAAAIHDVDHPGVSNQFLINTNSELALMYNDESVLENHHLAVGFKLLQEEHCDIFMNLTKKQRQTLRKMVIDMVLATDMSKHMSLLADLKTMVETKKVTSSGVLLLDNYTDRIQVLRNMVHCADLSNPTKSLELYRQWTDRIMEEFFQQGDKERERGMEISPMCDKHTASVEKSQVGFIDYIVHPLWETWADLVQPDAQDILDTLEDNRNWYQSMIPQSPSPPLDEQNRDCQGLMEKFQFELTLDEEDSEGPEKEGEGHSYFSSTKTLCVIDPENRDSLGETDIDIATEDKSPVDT

Row | Compound | inhibition at 100 µM | inhibition at 50 µM
1 | Nc1nc(N)nc(-c2cc(Cl)ccc2Cl)n1 [Irsogladine] | 31 ± 0.5% | 
2 | COc1ccc(C2CNC(=O)C2)cc1OC1CCCC1 (centres unmarked) [Rolipram] |  | 95%
